The supplement of paper PMC9780213

Legend:
Details in all cases: treatment time: 24 h
U2OS-mOrange2-Peroxisome = assay: cell count relative to DMSO control (panel B, lysosome/peroxisome/lipid stain) (fraction of control); higher = more cells (less toxicity)
Protocol: (§1)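 U2OS-derived cells in 384-well plates were treated for 24 h with a 7-point 2-fold dilution series (top dose 20 µM for most compounds; final max DMSO 1%), then fixed, stained in four marker panels and imaged on a Cellomics ArrayScan. Cell count per treatment (three replicate plates merged) is given as a fraction of DMSO control. Panel A used parental U2OS, panel B U2OS-mOrange2-Peroxisome, panel C1 U2OS-LMNB1-TUBA1B-ACTB (DRAQ5 nuclei).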

U2OS-LMNB1-TUBA1B-ACTB = assay: cell count relative to DMSO control (panel C1, DRAQ5/ER stain) (fraction of control); higher = more cells (less toxicity)
Protocol: as §1

U2OS = assay: cell count relative to DMSO control (panel A, nuclei/RNA/PMG/mitochondria stain) (fraction of control); higher = more cells (less toxicity)
Protocol: as §1

CO[C@H]1C[C@@H]2CC[C@@H](C)[C@@](O)(O2)C(=O)C(=O)N2CCCC[C@H]2C(=O)O[C@H]([C@H](C)C[C@@H]2CC[C@@H](OP(C)(C)=O)[C@H](OC)C2)CC(=O)[C@H](C)/C=C(\C)[C@@H](O)[C@@H](OC)C(=O)[C@H](C)C[C@H](C)/C=C/C=C/C=C/1C [deforolimus]
cell count
Details	0.07812 µM	0.15625 µM	0.3125 µM	0.625 µM	1.25 µM	2.5 µM	5 µM
U2OS	0.964	0.74	0.655	0.557	0.504	0.582	0.382
U2OS-LMNB1-TUBA1B-ACTB	0.878	0.753	0.625	0.644	0.471	0.438	0.373
U2OS-mOrange2-Peroxisome	0.782	0.674	0.595	0.61	0.485	0.385	0.364

CC(=O)N[C@H]1[C@@H](O[C@@H]2O[C@H](CC(O)[C@H]3O[C@@H](n4ccc(=O)[nH]c4=O)[C@H](O)[C@@H]3O)[C@H](O)[C@H](O)[C@H]2NC(=O)/C=C/CC(C)C)O[C@H](CO)[C@@H](N)[C@@H]1O (stereo partly specified) [tunicamycin]
cell count
Details	0.07812 µM	0.15625 µM	0.3125 µM	0.625 µM	1.25 µM	2.5 µM	5 µM
U2OS	0.979	0.654	0.663	0.582	0.61	0.535	0.535
U2OS-LMNB1-TUBA1B-ACTB	0.934	0.611	0.555	0.626	0.596	0.552	0.491
U2OS-mOrange2-Peroxisome	0.498	0.477	0.558	0.528	0.587	0.448	0.517

CCCCCCCCCCCCCCCCCCOP(=O)([O-])OC1CC[N+](C)(C)CC1 [perifosine]
cell count
Details	0.3125 µM	0.625 µM	1.25 µM	2.5 µM	5 µM	10 µM	20 µM
U2OS	0.989	1.07	1.02	0.99	0.979	0.592	0.285
U2OS-LMNB1-TUBA1B-ACTB	1.11	1.15	1.09	0.996	1.01	0.753	0.363
U2OS-mOrange2-Peroxisome	0.846	0.987	0.869	0.928	1.12	0.704	0.364

Fc1cc(F)c2c(c1)[C@H]1C=CC[C@H]1C(c1cccnc1)N2 (stereo partly specified) [golgicide-A]
cell count
Details	0.3125 µM	0.625 µM	1.25 µM	2.5 µM	5 µM	10 µM	20 µM
U2OS	0.981	1	0.929	1.06	1.03	0.826	0.566
U2OS-LMNB1-TUBA1B-ACTB	0.952	1.05	0.982	1.1	1.14	1.05	0.778
U2OS-mOrange2-Peroxisome	0.814	0.73	0.804	0.719	0.89	0.916	0.833

CC(C)n1nc(-c2ccc3oc(N)nc3c2)c2c(N)ncnc21 [MLN0128]
cell count
Details	0.07812 µM	0.15625 µM	0.3125 µM	0.625 µM	1.25 µM	2.5 µM	5 µM
U2OS	0.646	0.584	0.521	0.481	0.454	0.408	0.204
U2OS-LMNB1-TUBA1B-ACTB	0.774	0.748	0.7	0.698	0.614	0.557	0.271
U2OS-mOrange2-Peroxisome	0.578	0.426	0.42	0.439	0.393	0.301	0.0428

Nc1ccn([C@@H]2O[C@H](CO)[C@@H](O)C2(F)F)c(=O)n1 [gemcitabine]
cell count
Details	0.3125 µM	0.625 µM	1.25 µM	2.5 µM	5 µM	10 µM	20 µM
U2OS	1.03	0.658	0.435	0.374	0.396	0.379	0.412
U2OS-LMNB1-TUBA1B-ACTB	1.03	0.582	0.411	0.391	0.383	0.396	0.388
U2OS-mOrange2-Peroxisome	0.811	0.529	0.498	0.576	0.543	0.595	0.496

O=C(O)CCCCC(CCSCc1ccccc1)SCc1ccccc1 (stereo unspecified) [CPI-613]
cell count
Details	0.3125 µM	0.625 µM	1.25 µM	2.5 µM	5 µM	10 µM	20 µM
U2OS	1.01	0.993	0.975	1.04	1.14	1.11	1.05
U2OS-LMNB1-TUBA1B-ACTB	1.36	1.4	1.03	1.06	1.15	1.08	1.14
U2OS-mOrange2-Peroxisome	0.907	1.1	0.897	1.1	0.851	0.902	0.849

CC[C@]1(O)C[C@H]2CN(CCc3c([nH]c4ccccc34)[C@@](C(=O)OC)(c3cc4c(cc3OC)N(C=O)[C@H]3[C@@](O)(C(=O)OC)[C@H](OC(C)=O)[C@]5(CC)C=CCN6CC[C@]43[C@@H]65)C2)C1 [vincristine]
cell count
Details	0.3125 µM	0.625 µM	1.25 µM	2.5 µM	5 µM	10 µM	20 µM
U2OS	0.508	0.506	0.522	0.496	0.465	0.486	0.456
U2OS-LMNB1-TUBA1B-ACTB	0.617	0.651	0.606	0.557	0.576	0.58	0.59
U2OS-mOrange2-Peroxisome	0.728	0.834	0.678	0.793	0.752	0.769	0.685

C/C1=C/C(=O)O[C@@H]2C[C@@H](CC[C@H](C)/C=C\C=C\CC1)O[C@@](O)([C@@H]1CSC(=O)N1)C2 [latrunculin-a]
cell count
Details	0.000781 µM	0.0015625 µM	0.003125 µM	0.00625 µM	0.0125 µM	0.025 µM	0.05 µM
U2OS	0.372	0.438	0.369	0.312	0.278	0.194	0.121
U2OS-LMNB1-TUBA1B-ACTB	0.337	0.521	0.464	0.461	0.379	0.304	0.196
U2OS-mOrange2-Peroxisome	0.66	0.625	0.479	0.467	0.312	0.155	0.0636

CC[C@@]1([C@@H]2O[C@@H]([C@H]3O[C@@](O)(CO)[C@H](C)C[C@@H]3C)C[C@@H]2C)CC[C@H]([C@]2(C)CC[C@]3(C[C@H](O)[C@@H](C)[C@@H]([C@@H](C)[C@@H](OC)[C@H](C)C(=O)O)O3)O2)O1 [monensin]
cell count
Details	0.3125 µM	0.625 µM	1.25 µM	2.5 µM	5 µM	10 µM	20 µM
U2OS	0.746	0.606	0.504	0.422	0.375	0.339	0.332
U2OS-LMNB1-TUBA1B-ACTB	0.932	0.699	0.642	0.412	0.421	0.406	0.418
U2OS-mOrange2-Peroxisome	0.691	0.713	0.78	0.617	0.617	0.641	0.633

CCOc1ccccc1-n1c(C(C)N2CCN(C(=O)COc3ccc(Cl)cc3)CC2)nc2ccccc2c1=O (stereo unspecified) [erastin]
cell count
Details	0.3125 µM	0.625 µM	1.25 µM	2.5 µM	5 µM	10 µM	20 µM
U2OS	1.04	1.07	1.03	1.02	1.09	0.978	0.982
U2OS-LMNB1-TUBA1B-ACTB	1.11	1.14	1.06	1	1.11	1.03	0.905
U2OS-mOrange2-Peroxisome	0.603	0.516	0.65	0.612	0.749	0.77	0.579

CC(=O)O[C@H]1C(=O)[C@@]2(C)[C@H]([C@H](OC(=O)c3ccccc3)[C@]3(O)C[C@H](OC(=O)[C@H](O)[C@@H](NC(=O)c4ccccc4)c4ccccc4)C(C)=C1C3(C)C)[C@]1(OC(C)=O)CO[C@@H]1C[C@@H]2O [paclitaxel]
cell count
Details	0.3125 µM	0.625 µM	1.25 µM	2.5 µM	5 µM	10 µM	20 µM
U2OS	0.956	1.05	0.97	0.928	1.04	1	1
U2OS-LMNB1-TUBA1B-ACTB	1.04	1.09	1.08	1.05	0.93	1.14	0.992
U2OS-mOrange2-Peroxisome	0.878	0.695	0.709	0.787	0.849	0.843	1.14

CO[C@@]12[C@H](COC(N)=O)C3=C(C(=O)C(C)=C(N)C3=O)N1C[C@@H]1N[C@@H]12 [mitomycin-c]
cell count
Details	0.3125 µM	0.625 µM	1.25 µM	2.5 µM	5 µM	10 µM	20 µM
U2OS	0.677	0.708	0.683	0.639	0.59	0.531	0.278
U2OS-LMNB1-TUBA1B-ACTB	0.882	0.789	0.864	0.812	0.746	0.672	0.38
U2OS-mOrange2-Peroxisome	0.696	0.65	0.706	0.72	0.6	0.363	0.279

CC[C@H]1CN2CCc3cc(OC)c(OC)cc3[C@@H]2C[C@@H]1C[C@H]1NCCc2cc(OC)c(OC)cc21 [emetine]
cell count
Details	0.3125 µM	0.625 µM	1.25 µM	2.5 µM	5 µM	10 µM	20 µM
U2OS	1.08	1.01	1.01	0.994	1.02	1.05	0.753
U2OS-LMNB1-TUBA1B-ACTB	1.11	1.08	1	1.06	1.02	0.916	0.899
U2OS-mOrange2-Peroxisome	1.04	1.29	1.13	1.04	1.06	1.15	1.08

CNCCCN1c2ccccc2CCc2ccccc21 [desipramine]
cell count
Details	0.3125 µM	0.625 µM	1.25 µM	2.5 µM	5 µM	10 µM	20 µM
U2OS	0.822	0.55	0.489	0.481	0.379	0.243	0.189
U2OS-LMNB1-TUBA1B-ACTB	0.972	0.817	0.772	0.652	0.595	0.32	0.333
U2OS-mOrange2-Peroxisome	0.62	0.64	0.617	0.571	0.15	0.115	0.0511

CCN(CC)CCCC(C)Nc1c2ccc(Cl)cc2nc2ccc(OC)cc12 (stereo unspecified) [mepacrine]
cell count
Details	0.3125 µM	0.625 µM	1.25 µM	2.5 µM	5 µM	10 µM	20 µM
U2OS	1.02	0.981	0.98	0.921	0.925	0.85	0.616
U2OS-LMNB1-TUBA1B-ACTB	1.13	1.01	1.03	1.07	1.08	1.05	0.727
U2OS-mOrange2-Peroxisome	0.781	0.889	0.854	0.763	0.778	0.733	0.449
